Source: US6890954B1, “Uses of 2-bromopalmitate in the treatment of autoimmune disease” (priority 1999, dated 2005)

Experiments:
Format in all cases: cell-based
Vav = assay: CD3-mediated tyrosine phosphorylation of Vav in Jurkat cells; details: 100 μM 3 hours, OKT3
Description: (§1) Jurkat T cells (2×10^6−1×10^7) were centrifuged at 1,000×g for 5 minutes, rinsed with RPMI, resuspended in RPMI supplemented with 2% dialyzed FBS, 0.5% defatted BSA, and incubated with or without 100 μM 2-bromopalmitate at 8×10^5 cells/ml for 3 hours. The cells were centrifuged, washed with RPMI and resuspended in RPMI at 1×10^7−1×10^8 cells/ml. The cells were then activated with anti-CD3 OKT3 mAb (0.3 mg/ml) for 3 min at 37° C., quickly spun down, washed once with cold RPMI and once with cold STE, and lysed in RIPA Samples were solubilized in 1× sample buffer containing 5% β-mercaptoethanol and subjected to SDS-PAGE, followed by immunoblotting with anti-phosphotyrosine antibody (PY99). For analysis of specific proteins, RIPA lysates were immunoprecipitated with the specific antibodies O/N, and immunoblotted for phosphotyrosine. Alternatively, proteins were immunoprecipitated with agarose-conjugated anti phosphotyrosine antibody and blotted for the specific proteins.
(§2) In order to identify the individual proteins whose tyrosine phosphorylation is affected by 2-bromopalmitate, lysates were immunoprecipitated with a panel of specific antibodies, and immunoblotted for phosphotyrosine. Alternatively, lysates were immunoprecipitated with an antiphosphotyrosine antibody, and blotted with antibodies to specific proteins.

PI3K = assay: CD3-mediated tyrosine phosphorylation of PI3K in Jurkat cells; details: 100 μM 3 hours, OKT3
Description: as §1, §2

LAT [1] = assay: CD3-mediated tyrosine phosphorylation of LAT in Jurkat cells; details: 100 μM 3 hours, OKT3
Description: as §1, §2

PLC-γl = assay: CD3-mediated tyrosine phosphorylation of PLC-γl in Jurkat cells; details: 100 μM 3 hours, OKT3
Description: as §1, §2

Jurkat cells = assay: Toxicity control: LAT and actin levels by immunoblot in Jurkat cells; details: toxicity check, data not shown
Description: To verify that the observed inhibition of T cell receptor-mediated tyrosine phosphorylation was not a result of toxicity effects of 2-bromopalmitate, aliquots of each sample were analyzed by immunoblotting with anti-LAT and anti-actin antibodies. The levels of LAT and actin were not affected by 2-bromopalmitate (data not shown). Thus 2-bromopalmitate was able to inhibit signaling through the T cell receptor, as assayed by its ability to inhibit tyrosine phosphorylation of key substrate proteins.

Fyn(16)-eGFP = assay: Localization of Fyn(16)-eGFP in COS-1 cells (fluorescence microscopy, P100/S100 fractionation)
Description: COS-1 cells were transfected with a Fyn(16)-eGFP construct (12) and seeded onto 25-mm glass coverslips 2 days prior to the experiment. Cells were treated overnight with or without 2 bromopalmitate as described above. Plates were washed with PBS and coverslips were mounted onto glass slides in PBS and observed with a 40× and 100×oil immersion lens on a Zeiss Axiophot 2 microscope and photographed with Kodak TMAX 400.
To investigate the effect of 2-bromopalmitate on the intracellular localization of Fyn more precisely, COS-1 cells expressing a Fyn(16)-eGFP construct were examined by immunofluorescence. This construct contains the first 16 amino acids of Fyn fused in frame to eGFP; the chimera is targeted to the plasma membrane and detergent resistant microdomains (12). Cells were cultured with no treatment, with 2-bromopalmitate or with 2-hydroxymyristate, a known myristoylation inhibitor (40,41), as described above, and were examined live by fluorescence microscopy.
Analysis of the subcellular localization of Fyn(16)-eGFP in the presence of 2-bromopalmitate and 2-hydroxymyristate was performed as described above for steady-state Fyn. As depicted in FIG. 2B, in the absence of treatment, 80% of Fyn(16)-eGFP Fyn was membrane bound, whereas in cells treated with 2-bromopalmitate and 2-hydroxymyristate, 65% and 78% of Fyn(16)-eGFP were cytosolic, respectively.

LAT [2] = assay: DRM (raft) localization in activated Jurkat cells, sucrose gradient: LAT; details: 100 μM 3 hours, OKT3 activated, control 71%
Description: Isolation of Triton X-100 resistant and soluble fractions was carried out as described previously (12). Isolation of detergent resistant microdomains by sucrose gradients were carried out as follows (19): Jurkat cells (5×10^7) were treated with 2-bromopalmitate, activated with OKT3 mAb as described above, and lysed in 1 ml lysis buffer (25 mM MES pH 6.5, 150 mM NaCl, 0.5% Triton X-100, 1 mM Na3VO4) supplemented with protease inhibitors for 30 minutes at 0° C. After homogenizing 10 times with a loose fit Dounce homogenizer, lysates were mixed with 1 ml 85% sucrose in MBS (25 mM MES pH 6.5, 150 mM NaCl), and overlayered with 6 ml 30% sucrose in MBS, then with 4 ml 5% sucrose in MBS. Following centrifugation for 16 hours at 145,000 g in an SW40 rotor, 1 ml fractions were collected and analyzed by PAGE and immunoblotting with anti-Fyn, anti-LAT, or anti-Lck antibodies.
The ability of 2-bromopalmitate to inhibit localization of palmitoylated proteins to detergent resistant microdomains in activated Jurkat cells was examined next. Cells were either left untreated or treated with 100 μM 2-bromopalmitate for 3 hours, washed, resuspended in serum-free media, and the TCR was activated with OKT3 mAb. Activated cells were extracted with Triton X-100 containing buffer. […] Each fraction was analyzed by immunoblotting with specific antibodies. […]

[3] = system: T cell receptor signaling; assay: TCR-mediated tyrosine phosphorylation in Jurkat T cells (anti-phosphotyrosine immunoblot)
Description: as §1
Jurkat cells were incubated with 2-bromopalmitate and activated with OKT3 anti-CD3 antibody. Cell lysates were analyzed by immunoblotting with anti phosphotyrosine antibodies. In control cells, stimulation with OKT3 antibodies induced tyrosine phosphorylation of multiple proteins (Fig 5A). […] The most dramatic effect was on a 36 kDa protein, which represents LAT (see below).

## CCCCCCCCCCCCCCC(Br)C(=O)O (centres unmarked) [2-bromopalmitate]
Vav
  Vav phosphorylation inhibited: 40%
PI3K
  PI3K phosphorylation inhibited: 50%
LAT [1]
  CD3-mediated tyrosine phosphorylation of LAT: inhibited completely
PLC-γl
  PLC-γl phosphorylation inhibited: 70%
Jurkat cells
  levels of LAT and actin: not affected
Fyn(16)-eGFP; COS-1, 100 μM overnight, P100/S100, untreated 80% membrane bound
  Fyn(16)-eGFP cytosolic: 65%
Fyn(16)-eGFP; COS-1 live cells, 100 μM overnight
  Fyn(16)-eGFP distribution by fluorescence microscopy: reduced plasma membrane staining
LAT [2]
  LAT associated with detergent resistant microdomains: 41%
[3]; 100 μM 3 hours, OKT3 3 min
  OKT3-induced tyrosine phosphorylation of several proteins: significantly inhibited
[3]; FIG. 5B
  reduction of tyrosine phosphorylation on the signaling molecules examined, basal activation taken into account: 70-100%
[3]; unactivated
  tyrosine phosphorylation in the presence of 2-bromopalmitate alone (no stimulation), some proteins: Low to moderate increases
